Patent publication US20240252519A1, “METHODS FOR THE TREATMENT OF POST-TRAUMATIC STRESS DISORDER AND TRAUMATIC BRAIN INJURY WITH CANNABINOIDS” (ANANDA SCIENTIFIC, INC., priority 2021, published 2024)

Key:
[1] = rats, cited from earlier work
CB2 receptors = CB2 receptors (Homo sapiens, UniProt P34972); conditions: cited from earlier work
[2] = Chemical characteristics of composition A′, concentrated and diluted forms; type: physicochemical
Procedure: Several tests were conducted to determine the chemical characteristics of composition A′, both in concentrated and diluted forms. […] All liquid nanodomain droplets range in size from 5 to 20 nm. The pH of both the concentrate and diluted formulations is between 6.0 and 7.5.

[3] = doses ranging from 10 mg to 6000 mg, single and multiple doses; cited from earlier work

Chain of CB2 receptors (P34972 whole entry): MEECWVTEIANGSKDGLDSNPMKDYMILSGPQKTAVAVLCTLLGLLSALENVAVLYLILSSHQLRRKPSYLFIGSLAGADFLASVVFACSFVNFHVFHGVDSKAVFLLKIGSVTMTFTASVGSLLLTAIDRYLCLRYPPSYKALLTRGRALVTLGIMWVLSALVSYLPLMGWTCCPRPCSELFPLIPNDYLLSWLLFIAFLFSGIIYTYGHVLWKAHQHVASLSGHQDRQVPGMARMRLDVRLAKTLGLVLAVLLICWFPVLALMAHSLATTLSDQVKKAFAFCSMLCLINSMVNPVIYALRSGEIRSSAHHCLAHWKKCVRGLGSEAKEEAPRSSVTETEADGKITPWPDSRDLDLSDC

Question: Which T1/2 ([1]; 120 mg/kg dose, oral) does the source give for C=C(C)[C@@H]1CCC(C)=C[C@H]1c1c(O)cc(CCCCC)cc1O [CBD, 2-(1R,6R)-3-methyl-6-prop-1-en-2-ylcyclohex-2-en-1-yl-5-pentylbenzene-1,3-diol] here?
Answer: The T1/2 was 4 to 5 h.

Question: And the “Bioavailability of CBD delivered orally” value ([1]; single 10 mg/kg)?
Answer: Its value is 2.8%.

Question: And the “Affinity for CB2 receptors” value (CB2 receptors)?
Answer: Its value is “low affinity”.

Question: And the logP [2]?
Answer: Its logP is about 6.

Question: What about the Safety [3] of the same compound?
Answer: The Safety was “safe”.
